# Experiments:
# [1] = mouse, in vivo
# [2] = human serum, HPLC AUC vs time
# p-HER2 = test: Western blot of total and phosphorylated HER2, BT-474; type: cell-based; conditions: BT-474 cells, 1.5 μM, 36 h
# MCF-7 cells = test: Confocal microscopy binding, MCF-7 cells; type: cell-based; conditions: 0.5 μM, 30 min
# [3] = cited from earlier work
compound,measurement,setting,value
"N=C(N)NCCC[C@H]1NC(=O)C[C@H](c2cccc3ccccc23)NC(=O)[C@@H](Cc2ccccc2)NC(=O)[C@@H](CC(=O)O)NC(=O)[C@H]2CCCN2C(=O)[C@@H]2CCCN2C(=O)[C@@H](CCCNC(=N)N)NC(=O)C[C@H](c2cccc3ccccc23)NC(=O)[C@@H](Cc2ccccc2)NC(=O)[C@@H](CC(=O)O)NC1=O [compound 32, Cyclo(Ppdf-(R)Anapa-rdf-(R)Anapa-r]",Compound detected after 12 h compared to the 15 min,[1],~70%
same,Time stable in serum,[2],48 h
same,Level of p-HER2 (Western blot),p-HER2,decreased the level of p-HER2
same,Total-HER2 protein levels (Western blot),p-HER2,did not show any significant effect
"N=C(N)NCCC[C@@H]1NC(=O)[C@H]2CCCN2C(=O)[C@@H]2CCCN2C(=O)[C@H](CCCCNC(=O)c2ccc3c(c2)C2(OC3=O)c3ccc(O)cc3Oc3cc(O)ccc32)NC(=O)C[C@H](c2cccc3ccccc23)NC(=O)[C@H](Cc2ccccc2)NC(=O)[C@H](CC(=O)O)NC(=O)[C@H](CC(=O)O)NC(=O)[C@H](Cc2ccccc2)NC(=O)C[C@H](c2cccc3ccccc23)NC1=O [compound 44, Cyclo(PpR-(R)Anapa-FDDF-(R)Anapa-K-(6-FAM)]",Binding to cells by confocal microscopy (green fluorescence),MCF-7 cells,does not bind significantly
Cyclo(PpR-((R) Anapa)FDDF-((R) Anapa)R [compound 18],Stability in serum in vitro,[3],more than 48 h

# Source: publication PMC6284401 (Journal of peptide science : an official publication of the …, 2018)
